pKi: −log10 of the molar value.
The molecules below were run against T1, full-length ATR (Homo sapiens, UniProt Q13535) (assay: ATR Inhibition Assay (radioactive-phosphate incorporation)). Conditions: Ki(app); 5 nM full-length ATR, 10 μM ATP, 800 μM target peptide, 25° C.
T1 construct: Assays were carried out at 25° C. in the presence of 5 nM full-length ATR
Format: biochemical
Protocol: Compounds were screened for their ability to inhibit ATR kinase using a radioactive-phosphate incorporation assay. Assays were carried out in a mixture of 50 mM Tris/HCl (pH 7.5), 10 mM MgCl2 and 1 mM DTT. Final substrate concentrations were 10 μM [γ-33P]ATP (3mCi 33P ATP/mmol ATP, Perkin Elmer) and 800 μM target peptide (ASELPASQPQPFSAKKK) (SEQ. ID. NO: 1).
Assays were carried out at 25° C. in the presence of 5 nM full-length ATR. An assay stock buffer solution was prepared containing all of the reagents listed above, with the exception of ATP and the test compound of interest. 13.5 μL of the stock solution was placed in a 96 well plate followed by addition of 2 μL of DMSO stock containing serial dilutions of the test compound (typically starting from a final concentration of 15 μM with 3-fold serial dilutions) in duplicate (final DMSO concentration 7%). The plate was pre-incubated for 10 minutes at 25° C. and the reaction initiated by addition of 15 μL [γ-33P]ATP (final concentration 10 μM).
The reaction was stopped after […] by the addition of 30 μL 0.1M phosphoric acid containing 2 mM ATP. A multiscreen phosphocellulose filter 96-well plate (Millipore, Cat no. MAPHN0B50) was pretreated with 100 μL 0.2M phosphoric acid prior to the addition of 45 μL of the stopped assay mixture. The plate was washed with 5×200 μL 0.2M phosphoric acid. After drying, 100 μL Optiphase ‘SuperMix’ liquid scintillation cocktail (Perkin Elmer) was added to the well prior to scintillation counting (1450 Microbeta Liquid Scintillation Counter, Wallac).
After removing mean background values for all of the data points, Ki(app) data were calculated from non-linear regression analysis of the initial rate data using the Prism software package (GraphPad Prism version 3.0cx for Macintosh, GraphPad Software, San Diego Calif., USA).
Below is a chart showing the ATR Inhibition Ki values of compounds of the disclosure.

T1 sequence (Q13535 whole entry): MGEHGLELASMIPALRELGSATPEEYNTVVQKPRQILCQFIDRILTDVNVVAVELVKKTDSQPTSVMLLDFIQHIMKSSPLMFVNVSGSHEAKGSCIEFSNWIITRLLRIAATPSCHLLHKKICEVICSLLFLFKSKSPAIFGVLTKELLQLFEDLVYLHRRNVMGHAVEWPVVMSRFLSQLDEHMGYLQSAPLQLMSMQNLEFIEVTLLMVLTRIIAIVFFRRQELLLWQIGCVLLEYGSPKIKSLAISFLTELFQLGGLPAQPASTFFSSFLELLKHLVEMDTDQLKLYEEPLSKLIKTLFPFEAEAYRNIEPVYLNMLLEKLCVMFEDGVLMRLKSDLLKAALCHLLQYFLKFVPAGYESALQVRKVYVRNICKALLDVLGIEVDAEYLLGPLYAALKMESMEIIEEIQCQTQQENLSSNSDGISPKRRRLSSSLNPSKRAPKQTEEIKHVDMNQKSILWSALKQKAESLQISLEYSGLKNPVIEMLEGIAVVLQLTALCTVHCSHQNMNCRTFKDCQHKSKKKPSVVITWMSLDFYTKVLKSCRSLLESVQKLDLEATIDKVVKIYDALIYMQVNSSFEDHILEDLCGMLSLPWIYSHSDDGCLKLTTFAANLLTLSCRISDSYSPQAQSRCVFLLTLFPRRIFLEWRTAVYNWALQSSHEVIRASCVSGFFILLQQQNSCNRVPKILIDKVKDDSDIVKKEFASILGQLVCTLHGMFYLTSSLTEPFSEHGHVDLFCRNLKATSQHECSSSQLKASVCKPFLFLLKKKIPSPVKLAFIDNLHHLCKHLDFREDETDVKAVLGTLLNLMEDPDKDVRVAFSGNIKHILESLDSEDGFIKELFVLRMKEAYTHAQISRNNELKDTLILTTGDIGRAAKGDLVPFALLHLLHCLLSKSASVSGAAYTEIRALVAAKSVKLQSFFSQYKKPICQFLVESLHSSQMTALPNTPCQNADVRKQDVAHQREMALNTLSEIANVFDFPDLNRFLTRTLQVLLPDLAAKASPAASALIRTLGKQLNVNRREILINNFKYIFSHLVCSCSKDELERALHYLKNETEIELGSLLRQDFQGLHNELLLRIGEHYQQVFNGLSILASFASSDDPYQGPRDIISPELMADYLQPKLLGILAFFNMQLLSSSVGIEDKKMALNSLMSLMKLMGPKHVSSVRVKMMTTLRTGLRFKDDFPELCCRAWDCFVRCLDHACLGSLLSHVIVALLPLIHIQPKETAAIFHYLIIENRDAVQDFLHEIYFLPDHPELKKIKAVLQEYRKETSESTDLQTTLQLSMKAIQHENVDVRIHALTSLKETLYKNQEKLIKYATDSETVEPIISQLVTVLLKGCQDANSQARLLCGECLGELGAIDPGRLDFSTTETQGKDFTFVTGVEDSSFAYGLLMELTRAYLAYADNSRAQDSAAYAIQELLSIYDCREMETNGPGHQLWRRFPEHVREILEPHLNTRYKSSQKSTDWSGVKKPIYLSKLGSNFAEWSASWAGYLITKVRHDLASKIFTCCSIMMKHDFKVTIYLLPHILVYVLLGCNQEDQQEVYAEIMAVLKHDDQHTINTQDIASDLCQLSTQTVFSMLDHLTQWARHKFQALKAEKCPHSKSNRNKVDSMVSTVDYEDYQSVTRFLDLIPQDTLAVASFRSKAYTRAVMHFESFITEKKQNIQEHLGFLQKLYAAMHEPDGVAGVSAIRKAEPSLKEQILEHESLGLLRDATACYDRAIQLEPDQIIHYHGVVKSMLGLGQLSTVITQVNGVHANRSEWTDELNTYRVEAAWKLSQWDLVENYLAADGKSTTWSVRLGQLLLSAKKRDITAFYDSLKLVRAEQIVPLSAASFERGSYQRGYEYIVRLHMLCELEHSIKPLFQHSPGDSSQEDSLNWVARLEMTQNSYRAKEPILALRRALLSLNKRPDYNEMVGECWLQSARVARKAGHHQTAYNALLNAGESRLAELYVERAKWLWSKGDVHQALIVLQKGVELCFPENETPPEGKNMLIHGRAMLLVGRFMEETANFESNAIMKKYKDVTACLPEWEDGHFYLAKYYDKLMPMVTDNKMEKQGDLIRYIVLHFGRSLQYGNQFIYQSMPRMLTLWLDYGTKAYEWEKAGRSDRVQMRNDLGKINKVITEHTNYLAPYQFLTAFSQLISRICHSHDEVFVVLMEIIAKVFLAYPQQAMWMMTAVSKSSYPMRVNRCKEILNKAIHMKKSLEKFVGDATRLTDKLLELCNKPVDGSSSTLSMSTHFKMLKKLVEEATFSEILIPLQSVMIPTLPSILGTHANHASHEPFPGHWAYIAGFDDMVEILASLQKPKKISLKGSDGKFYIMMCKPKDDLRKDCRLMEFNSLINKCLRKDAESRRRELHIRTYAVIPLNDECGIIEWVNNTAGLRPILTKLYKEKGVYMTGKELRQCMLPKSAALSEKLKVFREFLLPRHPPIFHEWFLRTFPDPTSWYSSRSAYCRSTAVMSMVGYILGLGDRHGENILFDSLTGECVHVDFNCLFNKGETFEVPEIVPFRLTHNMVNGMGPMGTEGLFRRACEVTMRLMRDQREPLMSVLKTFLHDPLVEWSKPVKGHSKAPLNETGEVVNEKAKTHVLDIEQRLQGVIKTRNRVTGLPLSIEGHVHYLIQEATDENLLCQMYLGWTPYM

Structure (SMILES)	pKi
CC(C)S(=O)(=O)c1ccc(-c2cnc3[nH]cc(N4Cc5ccccc5C4=O)c3n2)cc1 [Compound I-1, 2-(2-(4-(isopropylsulfonyl)phenyl)-5H-pyrrolo[2,3-b]pyrazin-7-yl)isoindolin-1-one]	≥ 7.30
CC(C)S(=O)(=O)c1ccc(-c2cnc3[nH]cc(N4CCc5ccccc5C4=O)c3n2)cc1 [Compound I-2, 2-(2-(4-(isopropylsulfonyl)phenyl)-5H-pyrrolo[2,3-b]pyrazin-7-yl)-3,4-dihydroisoquinolin-1(2H)-one]	6.60 to 7.00
CC1c2ccccc2C(=O)N1c1c[nH]c2ncc(-c3ccc(S(=O)(=O)C(C)C)cc3)nc12 (stereo not drawn) [Compound I-3, 2-(2-(4-(isopropylsulfonyl)phenyl)-5H-pyrrolo[2,3-b]pyrazin-7-yl)-3-methylisoindolin-1-one]	≥ 7.30
CN(C)C(=O)c1ccc(-c2cnc3[nH]cc(N4Cc5ccccc5C4=O)c3n2)cc1 [Compound I-4, N,N-dimethyl-4-(7-(1-oxoisoindolin-2-yl)-5H-pyrrolo[2,3-b]pyrazin-2-yl)benzamide]	7.00 to 7.30
O=C1c2ccccc2CN1c1c[nH]c2ncc(-c3ccc(S(=O)(=O)C4COC4)cc3)nc12 [Compound I-5, 2-(2-(4-(oxetan-3-ylsulfonyl)phenyl)-5H-pyrrolo[2,3-b]pyrazin-7-yl)isoindolin-1-one]	≥ 7.30
CC(C)(C#N)c1cc(-c2cnc3[nH]cc(N4Cc5ccccc5C4=O)c3n2)ccn1 [Compound I-6, 2-methyl-2-(4-(7-(1-oxoisoindohn-2-yl)-5H-pyrrolo[2,3-b]pyrazin-2-yl)pyridin-2-yl)propanenitrile]	≥ 7.30
N#CC1(c2cc(-c3cnc4[nH]cc(N5Cc6ccccc6C5=O)c4n3)ccn2)CN2CCC1CC2 (stereo not drawn) [Compound I-7, 3-(4-(7-(1-oxoisoindolin-2-yl)-5H-pyrrolo[2,3-b]pyrazin-2-yl)pyridin-2-yl)quinuclidine-3-carbonitrile]	≥ 7.30
O=C1c2ccccc2CN1c1c[nH]c2ncc(-c3ccc(S(=O)(=O)C4CCCNC4)cc3)nc12 (stereo not drawn) [Compound I-8, 2-(2-(4-(piperidin-3-ylsulfonyl)phenyl)-5H-pyrrolo[2,3-b]pyrazin-7-yl)isoindolin-1-one]	≥ 7.30
CC(C)S(=O)(=O)c1ccc(-c2cnc3[nH]cc(N4Cc5cc(Br)ccc5C4=O)c3n2)cc1 [Compound I-9, 5-bromo-2-(2-(4-(isopropylsulfonyl)phenyl)-5H-pyrrolo[2,3-b]pyrazin-7-yl)isoindolin-1-one]	7.00 to 7.30
CC(C)S(=O)(=O)c1ccc(-c2cnc3[nH]cc(N4Cc5c(Cl)cccc5C4=O)c3n2)cc1 [Compound I-11, 4-chloro-2-(2-(4-(isopropylsulfonyl)phenyl)-5H-pyrrolo[2,3-b]pyrazin-7-yl)isoindolin-1-one]	7.00 to 7.30
CC(C)S(=O)(=O)c1ccc(-c2cnc3[nH]cc(N4Cc5cccc(Cl)c5C4=O)c3n2)cc1 [Compound I-12, 7-chloro-2-(2-(4-(isopropylsulfonyl)phenyl)-5H-pyrrolo[2,3-b]pyrazin-7-yl)isoindolin-1-one]	≥ 7.30
CC(C)S(=O)(=O)c1ccc(-c2cnc3[nH]cc(N4Cc5cccc([N+](=O)[O-])c5C4=O)c3n2)cc1 [Compound I-14, 2-(2-(4-(isopropylsulfonyl)phenyl)-5H-pyrrolo[2,3-b]pyrazin-7-yl)-7-nitroisoindolin-1-one]	≥ 7.30
CC(C)S(=O)(=O)c1ccc(-c2cnc3[nH]cc(N4Cc5cc(CN)ccc5C4=O)c3n2)cc1 [Compound I-15, 5-(aminomethyl)-2-(2-(4-(isopropylsulfonyl)phenyl)-5H-pyrrolo[2,3-b]pyrazin-7-yl)isoindolin-1-one]	6.60 to 7.00
CC(C)S(=O)(=O)c1ccc(-c2cnc3[nH]cc(N4Cc5c(C#N)cccc5C4=O)c3n2)cc1 [Compound I-16, 2-(2-(4-(isopropylsulfonyl)phenyl)-5H-pyrrolo[2,3-b]pyrazin-7-yl)-1-oxoisoindoline-4-carbonitrile]	7.00 to 7.30
CC(C)S(=O)(=O)c1ccc(-c2cnc3[nH]cc(N4Cc5c(CN)cccc5C4=O)c3n2)cc1 [Compound I-17, 4-(aminomethyl)-2-(2-(4-(isopropylsulfonyl)phenyl)-5H-pyrrolo[2,3-b]pyrazin-7-yl)isoindolin-1-one]	≥ 7.30
CC(C)S(=O)(=O)c1ccc(-c2cnc3[nH]cc(N4Cc5cccc(C#N)c5C4=O)c3n2)cc1 [Compound I-18, 2-(2-(4-(isopropylsulfonyl)phenyl)-5H-pyrrolo[2,3-b]pyrazin-7-yl)-3-oxoisoindoline-4-carbonitrile]	≥ 7.30
CC(C)S(=O)(=O)c1ccc(-c2cnc3[nH]cc(N4Cc5cccc(CN)c5C4=O)c3n2)cc1 [Compound I-19, 7-(aminomethyl)-2-(2-(4-(isopropylsulfonyl)phenyl)-5H-pyrrolo[2,3-b]pyrazin-7-yl)isoindolin-1-one]	≥ 7.30
CC(C)S(=O)(=O)c1ccc(-c2cnc3[nH]cc(N4Cc5ccc(CN)cc5C4=O)c3n2)cc1 [Compound I-20, 6-(aminomethyl)-2-(2-(4-(isopropylsulfonyl)phenyl)-5H-pyrrolo[2,3-b]pyrazin-7-yl)isoindolin-1-one]	≥ 7.30
CC(C)S(=O)(=O)c1ccc(-c2cnc3[nH]cc(N4Cc5cccc(N)c5C4=O)c3n2)cc1 [Compound I-21, 7-amino-2-(2-(4-(isopropylsulfonyl)phenyl)-5H-pyrrolo[2,3-b]pyrazin-7-yl)isoindolin-1-one]	≥ 7.30
O=C1c2c(Cl)cccc2CN1c1c[nH]c2ncc(-c3ccc(S(=O)(=O)C4CCNCC4)cc3)nc12 [Compound I-23, 7-chloro-2-(2-(4-(piperidin-4-ylsulfonyl)phenyl)-5H-pyrrolo[2,3-b]pyrazin-7-yl)isoindolin-1-one]	≥ 7.30
O=C1c2c(Cl)cccc2CN1c1c[nH]c2ncc(-c3ccc(S(=O)(=O)C4CCCNC4)cc3)nc12 (stereo not drawn) [Compound I-24, 7-chloro-2-(2-(4-(piperidin-3-ylsulfonyl)phenyl)-5H-pyrrolo[2,3-b]pyrazin-7-yl)isoindolin-1-one]	≥ 7.30
CC(C)S(=O)(=O)c1ccc(-c2cnc3[nH]cc(N4Cc5ccc(N6CC[C@@H](N)C6)cc5C4=O)c3n2)cc1 [Compound I-25, (R)-6-(3-aminopyrrolidin-1-yl)-2-(2-(4-(isopropylsulfonyl)phenyl)-5H-pyrrolo[2,3-b]pyrazin-7-yl)isoindolin-1-one]	≥ 7.30
CC(C)S(=O)(=O)c1ccc(-c2cnc3[nH]cc(N4Cc5ccc(NCCN(C)C)cc5C4=O)c3n2)cc1 [Compound I-26, 6-((2-(dimethylamino)ethyl)amino)-2-(2-(4-(isopropylsulfonyl)phenyl)-5H-pyrrolo[2,3-b]pyrazin-7-yl)isoindolin-1-one]	≥ 7.30
CC(C)S(=O)(=O)c1ccc(-c2cnc3[nH]cc(N4Cc5ccc(N6CC[C@H](N)C6)cc5C4=O)c3n2)cc1 [Compound I-27, (S)-6-(3-aminopyrrolidin-1-yl)-2-(2-(4-(isopropylsulfonyl)phenyl)-5H-pyrrolo[2,3-b]pyrazin-7-yl)isoindolin-1-one]	≥ 7.30
CC(C)S(=O)(=O)c1ccc(-c2cnc3[nH]cc(N4Cc5cc(N6CCNCC6)ccc5C4=O)c3n2)cc1 [Compound I-28, 2-(2-(4-(isopropylsulfonyl)phenyl)-5H-pyrrolo[2,3-b]pyrazin-7-yl)-5-(piperazin-1-yl)isoindolin-1-one]	≥ 7.30
CC(C)S(=O)(=O)c1ccc(-c2cnc3[nH]cc(N4Cc5cc(N6CC[C@H](CN)C6)ccc5C4=O)c3n2)cc1 [Compound I-29, (R)-5-(3-(aminomethyl)pyrrolidin-1-yl)-2-(2-(4-(isopropylsulfonyl)phenyl)-5H-pyrrolo[2,3-b]pyrazin-7-yl)isoindolin-1-one]	≥ 7.30
CC(C)S(=O)(=O)c1ccc(-c2cnc3[nH]cc(N4Cc5cc(N6CCCC(N)C6)ccc5C4=O)c3n2)cc1 (stereo not drawn) [Compound I-30, 5-(3-aminopiperidin-1-yl)-2-(2-(4-(isopropylsulfonyl)phenyl)-5H-pyrrolo[2,3-b]pyrazin-7-yl)isoindolin-1-one]	≥ 7.30
CC(C)S(=O)(=O)c1ccc(-c2cnc3[nH]cc(N4Cc5cc(N(C)C6CCNCC6)ccc5C4=O)c3n2)cc1 [Compound I-31, 2-(2-(4-(isopropylsulfonyl)phenyl)-5H-pyrrolo[2,3-b]pyrazin-7-yl)-5-(methyl(piperidin-4-yl)amino)isoindolin-1-one]	≥ 7.30
CC(C)S(=O)(=O)c1ccc(-c2cnc3[nH]cc(N4Cc5cc(NCCN6CCOCC6)ccc5C4=O)c3n2)cc1 [Compound I-32, 2-(2-(4-(isopropylsulfonyl)phenyl)-5H-pyrrolo[2,3-b]pyrazin-7-yl)-5-((2-morpholinoethyl)amino)isoindolin-1-one]	≥ 7.30

Same assay, conditions: numeric bound printed among class symbols; Ki(app); 5 nM full-length ATR, 10 μM ATP, 25° C.

Structure (SMILES)	pKi
CC(C)S(=O)(=O)c1ccc(-c2cnc3[nH]cc(N4Cc5ccc(C#N)cc5C4=O)c3n2)cc1 [Compound I-13, 2-(2-(4-(isopropylsulfonyl)phenyl)-5H-pyrrolo[2,3-b]pyrazin-7-yl)-3-oxoisoindoline-5-carbonitrile]	< 5.40

From patent publication US9309250B2, “Substituted pyrrolo[2,3-b]pyrazines as ATR kinase inhibitors” (Vertex Pharmaceuticals Incorporated, priority 2011, dated 2016)
